Source: PMC9329436, “Optimization of the 4-anilinoquin(az)oline scaffold as epidermal growth factor receptor (EGFR) inhibitors for chordoma utilizing a toxicology profiling assay platform” (Scientific Reports, 2022)
Like-named read-outs stand apart in the source and are kept apart here.

How the values were obtained:
Assay type in all cases: biochemical
[1] = target: 320 wild-type protein kinases (Homo sapiens, UniProt P27448); details: singlicate
From the text: (§1) Table S4. Profiling of two compounds at two concentrations against 320 wild-type protein kinases; singlicate measurement; Residual activities (% of control).

[2] = target: T1, 320 wild-type protein kinases (Homo sapiens, UniProt O00418); details: EEF2K, singlicate
T1 sequence (O00418 1-725): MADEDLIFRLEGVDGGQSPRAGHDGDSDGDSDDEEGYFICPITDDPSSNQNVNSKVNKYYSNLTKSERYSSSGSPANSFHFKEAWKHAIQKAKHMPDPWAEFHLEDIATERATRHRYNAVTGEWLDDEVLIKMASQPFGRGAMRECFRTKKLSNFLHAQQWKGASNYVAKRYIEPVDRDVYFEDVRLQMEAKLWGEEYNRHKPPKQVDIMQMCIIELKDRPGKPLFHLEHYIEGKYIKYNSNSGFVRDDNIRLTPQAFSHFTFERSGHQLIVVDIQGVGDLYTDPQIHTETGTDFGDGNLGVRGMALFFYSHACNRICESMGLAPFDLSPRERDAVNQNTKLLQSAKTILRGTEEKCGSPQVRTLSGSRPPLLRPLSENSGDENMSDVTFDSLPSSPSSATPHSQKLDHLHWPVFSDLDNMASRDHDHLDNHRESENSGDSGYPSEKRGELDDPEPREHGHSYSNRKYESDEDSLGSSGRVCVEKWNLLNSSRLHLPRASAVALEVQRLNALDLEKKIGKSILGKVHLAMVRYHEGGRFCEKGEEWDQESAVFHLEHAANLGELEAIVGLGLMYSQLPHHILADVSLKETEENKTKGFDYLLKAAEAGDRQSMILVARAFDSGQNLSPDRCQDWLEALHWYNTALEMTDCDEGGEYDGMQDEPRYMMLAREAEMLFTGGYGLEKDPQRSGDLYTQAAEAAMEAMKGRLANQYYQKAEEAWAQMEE
From the text: as §1

[3] = target: 320 wild-type protein kinases (Homo sapiens, UniProt P50750); details: singlicate
From the text: as §1

[4] = target: 320 wild-type protein kinases (Homo sapiens, UniProt Q9BWU1); details: CDK19/CycC, singlicate
From the text: as §1

[5] = target: 320 wild-type protein kinases (Homo sapiens, UniProt Q9Y463); details: DYRK1B, singlicate
From the text: as §1

[6] = target: 320 wild-type protein kinases (Homo sapiens, UniProt P22607); details: singlicate
From the text: as §1

[7] = target: 320 wild-type protein kinases (Homo sapiens, UniProt P49760); details: singlicate
From the text: as §1

[8] = target: 320 wild-type protein kinases (Homo sapiens, UniProt P24723); details: PKC-eta, singlicate
From the text: as §1

[9] = target: 320 wild-type protein kinases (Homo sapiens, UniProt O60566); details: BUB1B, singlicate
From the text: as §1

[10] = target: 320 wild-type protein kinases (Homo sapiens, UniProt Q13233); details: singlicate
From the text: as §1

[11] = target: T2, 320 wild-type protein kinases (Homo sapiens, UniProt Q8IWQ3); details: singlicate
T2 sequence (Q8IWQ3 1-736): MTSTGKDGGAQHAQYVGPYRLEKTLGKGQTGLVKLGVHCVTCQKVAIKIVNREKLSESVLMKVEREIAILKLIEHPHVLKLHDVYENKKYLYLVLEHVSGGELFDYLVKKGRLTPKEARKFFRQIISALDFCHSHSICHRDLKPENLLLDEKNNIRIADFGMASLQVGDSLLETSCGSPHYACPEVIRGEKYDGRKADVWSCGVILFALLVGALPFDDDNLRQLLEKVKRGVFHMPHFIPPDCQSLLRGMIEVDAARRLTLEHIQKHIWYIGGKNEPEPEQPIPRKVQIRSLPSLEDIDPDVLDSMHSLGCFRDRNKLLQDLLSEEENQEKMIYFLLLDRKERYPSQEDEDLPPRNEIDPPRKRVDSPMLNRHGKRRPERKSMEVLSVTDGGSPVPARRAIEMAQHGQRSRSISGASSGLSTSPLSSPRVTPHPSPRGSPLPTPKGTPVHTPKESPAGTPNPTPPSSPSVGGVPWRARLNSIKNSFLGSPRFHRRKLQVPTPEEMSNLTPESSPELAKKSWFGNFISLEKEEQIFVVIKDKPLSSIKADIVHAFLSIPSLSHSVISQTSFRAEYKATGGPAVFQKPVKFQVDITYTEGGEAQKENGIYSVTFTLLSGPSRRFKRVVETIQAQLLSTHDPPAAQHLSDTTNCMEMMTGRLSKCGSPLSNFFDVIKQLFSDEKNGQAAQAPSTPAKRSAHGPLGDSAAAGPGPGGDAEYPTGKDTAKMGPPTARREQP
From the text: as §1

Sequence of 320 wild-type protein kinases (Homo sapiens, UniProt Q9Y463) (Q9Y463 whole entry): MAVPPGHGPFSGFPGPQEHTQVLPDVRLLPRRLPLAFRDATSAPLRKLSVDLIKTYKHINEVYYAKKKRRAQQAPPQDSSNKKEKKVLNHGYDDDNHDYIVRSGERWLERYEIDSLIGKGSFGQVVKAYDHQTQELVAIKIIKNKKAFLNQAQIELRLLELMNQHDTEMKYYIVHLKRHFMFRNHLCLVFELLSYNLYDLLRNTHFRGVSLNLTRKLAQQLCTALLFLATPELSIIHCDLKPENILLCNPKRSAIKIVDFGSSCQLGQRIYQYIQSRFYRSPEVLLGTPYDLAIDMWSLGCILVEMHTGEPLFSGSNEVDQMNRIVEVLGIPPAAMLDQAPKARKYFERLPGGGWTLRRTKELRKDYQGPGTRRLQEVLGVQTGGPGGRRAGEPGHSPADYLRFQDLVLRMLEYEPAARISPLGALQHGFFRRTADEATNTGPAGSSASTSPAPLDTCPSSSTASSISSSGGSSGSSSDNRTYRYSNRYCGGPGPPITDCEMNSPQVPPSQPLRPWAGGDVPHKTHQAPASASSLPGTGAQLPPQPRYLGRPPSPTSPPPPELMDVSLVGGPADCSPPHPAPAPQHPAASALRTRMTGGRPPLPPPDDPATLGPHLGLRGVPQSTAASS
Sequence of 320 wild-type protein kinases (Homo sapiens, UniProt P27448) (P27448 whole entry): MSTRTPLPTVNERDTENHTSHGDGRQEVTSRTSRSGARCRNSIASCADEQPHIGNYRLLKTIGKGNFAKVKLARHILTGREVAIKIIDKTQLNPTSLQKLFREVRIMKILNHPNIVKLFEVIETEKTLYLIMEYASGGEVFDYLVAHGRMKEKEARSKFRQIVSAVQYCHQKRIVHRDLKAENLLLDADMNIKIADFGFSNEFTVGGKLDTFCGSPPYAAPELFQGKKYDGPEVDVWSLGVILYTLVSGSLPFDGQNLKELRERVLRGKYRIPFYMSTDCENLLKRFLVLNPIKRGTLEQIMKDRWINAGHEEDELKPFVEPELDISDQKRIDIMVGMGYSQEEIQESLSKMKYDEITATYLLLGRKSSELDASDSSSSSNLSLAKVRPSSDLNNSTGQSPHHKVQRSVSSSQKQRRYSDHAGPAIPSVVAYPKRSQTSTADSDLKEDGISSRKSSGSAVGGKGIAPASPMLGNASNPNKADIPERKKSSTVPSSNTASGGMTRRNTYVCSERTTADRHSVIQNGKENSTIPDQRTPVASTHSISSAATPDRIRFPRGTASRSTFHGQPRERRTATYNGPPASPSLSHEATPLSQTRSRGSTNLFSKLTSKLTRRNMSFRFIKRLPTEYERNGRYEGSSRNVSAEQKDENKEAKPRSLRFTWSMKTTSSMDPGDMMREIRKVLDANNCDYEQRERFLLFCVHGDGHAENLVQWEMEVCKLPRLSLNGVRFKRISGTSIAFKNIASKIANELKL
Sequence of 320 wild-type protein kinases (Homo sapiens, UniProt P50750) (P50750 whole entry): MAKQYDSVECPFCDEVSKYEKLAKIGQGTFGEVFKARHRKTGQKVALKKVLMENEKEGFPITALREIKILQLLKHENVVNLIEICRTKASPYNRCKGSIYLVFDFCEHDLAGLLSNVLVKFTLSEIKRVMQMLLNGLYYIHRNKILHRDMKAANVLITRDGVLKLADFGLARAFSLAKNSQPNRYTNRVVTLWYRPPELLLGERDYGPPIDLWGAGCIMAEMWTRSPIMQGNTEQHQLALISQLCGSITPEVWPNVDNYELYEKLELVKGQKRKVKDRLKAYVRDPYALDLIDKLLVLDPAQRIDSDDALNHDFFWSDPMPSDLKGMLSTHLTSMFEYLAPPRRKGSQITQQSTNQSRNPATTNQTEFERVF
Sequence of 320 wild-type protein kinases (Homo sapiens, UniProt P22607) (P22607 23-806): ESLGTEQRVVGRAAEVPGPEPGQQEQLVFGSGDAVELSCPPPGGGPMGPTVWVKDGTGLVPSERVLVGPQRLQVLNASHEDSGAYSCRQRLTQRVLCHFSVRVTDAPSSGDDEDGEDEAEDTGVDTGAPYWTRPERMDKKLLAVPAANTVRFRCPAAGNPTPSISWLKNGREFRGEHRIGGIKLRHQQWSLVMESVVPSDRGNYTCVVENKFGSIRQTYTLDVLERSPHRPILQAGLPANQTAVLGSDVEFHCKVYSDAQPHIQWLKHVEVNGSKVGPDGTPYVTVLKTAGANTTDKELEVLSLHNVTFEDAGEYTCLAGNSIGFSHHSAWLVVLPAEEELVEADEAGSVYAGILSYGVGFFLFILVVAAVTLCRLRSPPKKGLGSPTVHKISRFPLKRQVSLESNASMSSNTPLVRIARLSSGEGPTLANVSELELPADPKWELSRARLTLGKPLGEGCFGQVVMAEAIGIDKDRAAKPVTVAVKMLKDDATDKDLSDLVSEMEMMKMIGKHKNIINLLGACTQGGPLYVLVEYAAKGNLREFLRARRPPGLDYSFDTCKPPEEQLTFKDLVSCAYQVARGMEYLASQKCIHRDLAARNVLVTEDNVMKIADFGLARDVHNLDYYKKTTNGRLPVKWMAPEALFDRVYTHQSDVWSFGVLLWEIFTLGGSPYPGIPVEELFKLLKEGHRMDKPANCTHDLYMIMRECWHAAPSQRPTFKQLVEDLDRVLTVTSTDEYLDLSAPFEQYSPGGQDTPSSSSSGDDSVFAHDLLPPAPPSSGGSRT
Sequence of 320 wild-type protein kinases (Homo sapiens, UniProt P49760) (P49760 whole entry): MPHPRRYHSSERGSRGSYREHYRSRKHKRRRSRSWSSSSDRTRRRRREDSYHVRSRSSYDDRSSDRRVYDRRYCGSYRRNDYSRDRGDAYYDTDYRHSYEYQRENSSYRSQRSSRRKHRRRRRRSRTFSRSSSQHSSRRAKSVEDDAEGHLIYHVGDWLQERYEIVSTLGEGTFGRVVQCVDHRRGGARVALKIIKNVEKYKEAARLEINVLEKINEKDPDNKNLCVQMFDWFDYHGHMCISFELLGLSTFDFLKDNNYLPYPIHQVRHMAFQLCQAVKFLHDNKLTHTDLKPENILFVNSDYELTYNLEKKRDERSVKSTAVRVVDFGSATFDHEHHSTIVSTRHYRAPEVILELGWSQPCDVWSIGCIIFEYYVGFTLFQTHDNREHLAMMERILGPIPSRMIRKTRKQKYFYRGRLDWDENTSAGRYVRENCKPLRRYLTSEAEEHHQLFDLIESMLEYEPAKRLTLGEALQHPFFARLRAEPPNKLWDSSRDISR
Sequence of 320 wild-type protein kinases (Homo sapiens, UniProt Q9BWU1) (Q9BWU1 whole entry): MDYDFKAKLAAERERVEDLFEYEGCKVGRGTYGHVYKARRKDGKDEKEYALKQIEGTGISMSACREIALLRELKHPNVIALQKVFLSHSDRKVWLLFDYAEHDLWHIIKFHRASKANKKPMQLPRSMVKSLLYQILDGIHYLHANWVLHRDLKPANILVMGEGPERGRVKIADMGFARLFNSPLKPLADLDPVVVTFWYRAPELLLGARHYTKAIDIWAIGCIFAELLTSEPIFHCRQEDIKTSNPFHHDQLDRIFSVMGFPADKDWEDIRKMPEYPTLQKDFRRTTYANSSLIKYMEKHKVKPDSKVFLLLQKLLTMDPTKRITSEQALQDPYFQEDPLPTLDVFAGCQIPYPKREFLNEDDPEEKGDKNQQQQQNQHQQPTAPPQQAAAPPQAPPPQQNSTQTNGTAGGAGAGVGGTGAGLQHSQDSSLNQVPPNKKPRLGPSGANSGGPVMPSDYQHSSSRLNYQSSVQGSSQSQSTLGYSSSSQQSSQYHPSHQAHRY
Sequence of 320 wild-type protein kinases (Homo sapiens, UniProt O60566) (O60566 whole entry): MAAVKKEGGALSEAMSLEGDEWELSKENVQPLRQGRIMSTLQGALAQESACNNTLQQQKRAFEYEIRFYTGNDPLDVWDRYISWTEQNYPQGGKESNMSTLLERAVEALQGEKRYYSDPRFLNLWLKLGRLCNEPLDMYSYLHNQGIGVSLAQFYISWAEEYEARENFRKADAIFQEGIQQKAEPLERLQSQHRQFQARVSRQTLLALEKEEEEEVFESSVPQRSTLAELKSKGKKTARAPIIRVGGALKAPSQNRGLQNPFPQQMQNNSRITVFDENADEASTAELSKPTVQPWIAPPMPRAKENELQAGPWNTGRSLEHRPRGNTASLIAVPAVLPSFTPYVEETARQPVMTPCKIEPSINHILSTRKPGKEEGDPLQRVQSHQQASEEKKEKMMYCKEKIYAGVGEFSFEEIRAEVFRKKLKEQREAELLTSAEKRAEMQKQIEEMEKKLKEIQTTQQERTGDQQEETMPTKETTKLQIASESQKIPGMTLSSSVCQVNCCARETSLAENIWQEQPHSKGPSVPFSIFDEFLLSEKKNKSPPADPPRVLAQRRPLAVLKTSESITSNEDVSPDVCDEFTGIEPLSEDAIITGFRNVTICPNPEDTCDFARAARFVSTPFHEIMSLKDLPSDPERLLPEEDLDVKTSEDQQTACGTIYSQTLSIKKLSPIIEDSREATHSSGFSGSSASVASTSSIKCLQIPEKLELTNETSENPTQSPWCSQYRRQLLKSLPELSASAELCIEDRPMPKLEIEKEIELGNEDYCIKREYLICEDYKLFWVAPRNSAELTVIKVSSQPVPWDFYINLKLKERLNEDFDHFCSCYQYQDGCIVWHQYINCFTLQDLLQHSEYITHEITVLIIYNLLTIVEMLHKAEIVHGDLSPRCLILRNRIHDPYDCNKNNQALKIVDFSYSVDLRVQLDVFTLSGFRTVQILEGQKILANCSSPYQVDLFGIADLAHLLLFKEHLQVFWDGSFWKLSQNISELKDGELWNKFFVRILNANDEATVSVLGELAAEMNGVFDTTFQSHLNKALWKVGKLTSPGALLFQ

Compound	Residual activity ([1]; MARK3, 1.0E-06 M)	Residual activity ([1]; MARK3, 1.0E-07 M)	Residual activity ([2]; 1.0E-06 M)	Residual activity ([2]; 1.0E-07 M)	Residual activity ([3]; CDK9/CycK, 1.0E-06 M)	Residual activity ([3]; CDK9/CycK, 1.0E-07 M)	Residual activity ([3]; CDK9/CycT1, 1.0E-06 M)	Residual activity ([3]; CDK9/CycT1, 1.0E-07 M)	Residual activity ([4]; 1.0E-06 M)	Residual activity ([4]; 1.0E-07 M)	Residual activity ([5]; 1.0E-06 M)	Residual activity ([5]; 1.0E-07 M)	Residual activity ([6]; FGF-R3, 1.0E-06 M)	Residual activity ([6]; FGF-R3, 1.0E-07 M)	Residual activity ([7]; CLK2, 1.0E-06 M)	Residual activity ([7]; CLK2, 1.0E-07 M)	Residual activity ([8]; 1.0E-06 M)	Residual activity ([8]; 1.0E-07 M)	Residual activity ([9]; 1.0E-06 M)	Residual activity ([9]; 1.0E-07 M)	also measured
C#Cc1cc(Nc2ncnc3cc(I)ccc23)ccc1Cl [Compound 41]	95 % of control	97 % of control	87 % of control	94 % of control	80 % of control	99 % of control	92 % of control	95 % of control	93 % of control	91 % of control	90 % of control	116 % of control	93 % of control	99 % of control	106 % of control	122 % of control	91 % of control	93 % of control	131 % of control	122 % of control	Residual activity ([10]; MAP3K1, 1.0E-06 M): 93 % of control; Residual activity ([10]; MAP3K1, 1.0E-07 M): 96 % of control; Residual activity ([11]; BRSK2, 1.0E-06 M): 100 % of control; Residual activity ([11]; BRSK2, 1.0E-07 M): 98 % of control
C#Cc1cc(Nc2ncnc3cc(OC)c(OC)cc23)ccc1Cl [Compound 45]	100 % of control	96 % of control	83 % of control	91 % of control	86 % of control	103 % of control	88 % of control	90 % of control	97 % of control	104 % of control	111 % of control	105 % of control	70 % of control	79 % of control	105 % of control	119 % of control	75 % of control	90 % of control	115 % of control	137 % of control	Residual activity ([10]; MAP3K1, 1.0E-06 M): 96 % of control; Residual activity ([10]; MAP3K1, 1.0E-07 M): 96 % of control; Residual activity ([11]; BRSK2, 1.0E-06 M): 101 % of control; Residual activity ([11]; BRSK2, 1.0E-07 M): 106 % of control
